In test [1] the target is T1, DOR-eGFP (delta opioid receptor-eGFP) (Mus musculus, UniProt P32300).
T1 construct: gene Oprd1; Full-length mouse delta receptor with C-terminal eGFP, knocked in at the native gene (exon 3, 5' of the stop codon); whole brain membranes of knock-in mice
Kind of test: [3H]naltrindole competition binding, whole brain membranes. Conditions: 1 nM [3H]naltrindole, 1 h, 25 °C; read-out: Affinity (Competition Binding) / Ki (nM) / Concentration. From the text:
[3H]naltrindole competition binding, whole brain membranes on DOR-eGFP (delta opioid receptor-eGFP)

Test [2] has as its target T1, DOR-eGFP (delta opioid receptor-eGFP). The experiment in a line: […]GTPgammaS binding, whole brain membranes. In kind it is biochemical. Conditions: agonist; 30 µM GDP, 0.1 nM [35S]GTPgammaS, 3 mM MgCl2, 100 mM NaCl, pH 7.4, 1 h, 25 °C; read-out: G protein coupling ([^35S]GTPγS binding) / EC50 (nM) / Striatum / E1/2 (min). Background: GTPγS resists hydrolysis and so accumulates on activated G proteins.

Each structure is given as a SMILES string.

From PMC2672171, “In Vivo Delta Opioid Receptor Internalization Controls Behavioral Effects of Agonists” (PLoS ONE, 2009) come the findings set out here.

T1 sequence (P32300 whole entry): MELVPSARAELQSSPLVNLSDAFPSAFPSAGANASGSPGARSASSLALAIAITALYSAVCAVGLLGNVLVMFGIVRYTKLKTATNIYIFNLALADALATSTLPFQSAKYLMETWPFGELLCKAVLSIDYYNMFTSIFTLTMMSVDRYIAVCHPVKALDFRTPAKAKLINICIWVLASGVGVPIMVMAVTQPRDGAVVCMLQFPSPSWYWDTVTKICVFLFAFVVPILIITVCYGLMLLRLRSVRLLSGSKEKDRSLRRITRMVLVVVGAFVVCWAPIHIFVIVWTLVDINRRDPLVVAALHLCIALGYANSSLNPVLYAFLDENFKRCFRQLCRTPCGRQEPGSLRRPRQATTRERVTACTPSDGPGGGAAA

Turning to `CCN(CC)C(=O)c1ccc(C(=C2CCNCC2)c2ccccc2)cc1` [ARM390, N,N-diethyl-4-(phenyl-piperidin-4-ylidenemethyl)-benzamide], the Ki in test [1] was determined as 2.3 ± 0.3 nM. For the same molecule, in test [2], the EC50 turned out to be 169 ± 9.5 nM.
